Source: ChEMBL document CHEMBL4251601 (Eur J Med Chem, 2018)

Assays:
[1] = target: Cyclin-dependent kinase 4/cyclin D1 (Homo sapiens, UniProt P11802); assay: Inhibition of CDK4/Cyclin-D1 (unknown origin) using histone-H1 as substrate after 90 mins by ADP-Glo assay; format: protein-complex assay
[2] = Clearance in Sprague-Dawley rat at 2 mg/kg, iv administered as single dose by LC-MS/MS analysis; format: ADME, organism-based; details: in vivo
[3] = AUC (0 to infinity) in Sprague-Dawley rat at 2 mg/kg, iv administered as single dose by LC-MS/MS analysis; format: ADME, organism-based; parameters: dose 2 mg/kg, route intravenous, time infinity; details: Sprague-Dawley, in vivo
[4] = Half life in Sprague-Dawley rat at 5 mg/kg, po administered as single dose by LC-MS/MS analysis; format: ADME, organism-based; details: in vivo
[5] = target: Tyrosine-protein kinase JAK3 (Homo sapiens, UniProt P52333); assay: Inhibition of recombinant human GST-tagged JAK3 cytoplasmic domain (781 to 1124 residues) expressed in baculovirus expression system using ULight-JAK-1 peptide as substrate preincubated for 15 mins followed by ATP addition measured after 90 mins
[6] = target: Mitogen-activated protein kinase kinase kinase 14 (Homo sapiens, UniProt Q99558); assay: Inhibition of recombinant human GST-tagged NIK expressed in baculovirus expression system using ser/thr-7 as substrate preincubated for 15 mins followed by ATP addition measured after 60 mins
[7] = target: Cytoplasmic tyrosine-protein kinase BMX (Homo sapiens) (UniProt P51813); assay: Inhibition of recombinant full length human His-tagged BMX expressed in baculovirus expression system at 0.1 uM by TR-FRET assay relative to control
[8] = target: Tyrosine-protein kinase BTK (Homo sapiens) (UniProt Q06187); assay: Inhibition of recombinant full length human His-tagged BTK expressed in baculovirus expression system at 0.1 uM by TR-FRET assay relative to control
[9] = target: Ephrin type-B receptor 2 (Homo sapiens) (UniProt P29323); assay: Inhibition of recombinant human GST-tagged EPHB2 cytoplasmic domain (616 to 884 residues) expressed in baculovirus expression system at 0.1 uM by Z'-Lyte assay relative to control
[10] = target: Vascular endothelial growth factor receptor 2 (Homo sapiens) (UniProt P35968); assay: Inhibition of recombinant human His-tagged KDR cytoplasmic domain expressed in baculovirus expression system at 0.1 uM by Z'-Lyte assay relative to control
[11] = target: Leucine-rich repeat serine/threonine-protein kinase 2 (Homo sapiens) (UniProt Q5S007); assay: Inhibition of recombinant human GST-tagged LRRK2 (970 to 2527 residues) expressed in baculovirus expression system at 0.1 uM by TR-FRET assay relative to control
[12] = target: Tyrosine-protein kinase Mer (Homo sapiens) (UniProt Q12866); assay: Inhibition of recombinant human GST-tagged MERTK (578 to 872 residues) expressed in baculovirus expression system at 0.1 uM by Z'-Lyte assay relative to control
[13] = target: Misshapen-like kinase 1 (Homo sapiens) (UniProt Q8N4C8); assay: Inhibition of recombinant human GST-tagged MINK (1 to 320 residues) expressed in baculovirus expression system at 0.1 uM by Z'-Lyte assay relative to control
[14] = target: Protein kinase C beta type (Homo sapiens) (UniProt P05771); assay: Inhibition of PKCbeta2 (unknown origin) at 0.1 uM by Z'-Lyte assay relative to control
[15] = target: Angiopoietin-1 receptor (Homo sapiens) (UniProt Q02763); assay: Inhibition of recombinant human GST-tagged TIE2 cytoplasmic domain expressed in baculovirus expression system at 0.1 uM by Z'-Lyte assay relative to control
[16] = target: CDK6/cyclin D3 (Homo sapiens) (UniProt P30281+Q00534); assay: Inhibition of recombinant full length human GST-tagged CDK6/Cyclin-D3 expressed in baculovirus expression system at 1 uM by TR-FRET assay relative to control
[17] = target: Calcium/calmodulin-dependent protein kinase type II subunit beta (Homo sapiens) (UniProt Q13554); assay: Inhibition of recombinant full length human His-tagged CAMK2B expressed in baculovirus expression system at 1 uM by Z'-Lyte assay relative to control
[18] = target: Epidermal growth factor receptor (Homo sapiens) (UniProt P00533); assay: Inhibition of recombinant human GST-tagged EGFR cytoplasmic domain expressed in baculovirus expression system at 1 uM by TR-FRET assay relative to control
[19] = target: Ephrin type-B receptor 2 (Homo sapiens) (UniProt P29323); assay: Inhibition of recombinant human GST-tagged EPHB2 cytoplasmic domain (616 to 884 residues) expressed in baculovirus expression system at 1 uM by Z'-Lyte assay relative to control
[20] = target: G protein-coupled receptor kinase 4 (Homo sapiens) (UniProt P32298); assay: Inhibition of recombinant human full length GST-tagged GRK4 expressed in baculovirus expression system at 1 uM by Z'-Lyte assay relative to control
[21] = target: MAP kinase-activated protein kinase 2 (Homo sapiens) (UniProt P49137); assay: Inhibition of recombinant human full length His-tagged MK2 expressed in Escherichia coli at 1 uM by Z'-Lyte assay relative to control
[22] = target: Mitogen-activated protein kinase kinase kinase 9 (Homo sapiens) (UniProt P80192); assay: Inhibition of recombinant human GST-tagged MLK1 expressed in baculovirus expression system at 1 uM by Z'-Lyte assay relative to control
[23] = target: Serine/threonine-protein kinase PAK 4 (Homo sapiens) (UniProt O96013); assay: Inhibition of recombinant human GST-tagged PAK4 expressed in baculovirus expression system at 1 uM by Z'-Lyte assay relative to control
[24] = target: Platelet-derived growth factor receptor beta (Homo sapiens) (UniProt P09619); assay: Inhibition of recombinant human His-tagged PDGFRbeta cytoplasmic domain expressed in baculovirus expression system at 1 uM by Z'-Lyte assay relative to control
[25] = target: Proto-oncogene tyrosine-protein kinase receptor Ret (Homo sapiens) (UniProt P07949); assay: Inhibition of recombinant human GST-tagged RET cytoplasmic domain (658 to 1114 residues) expressed in baculovirus expression system at 1 uM by Z'-Lyte assay relative to control
[26] = target: Serine/threonine-protein kinase TAO2 (Homo sapiens) (UniProt Q9UL54); assay: Inhibition of recombinant human GST-tagged TAOK2 expressed in baculovirus expression system at 1 uM by Z'-Lyte assay relative to control
[27] = target: Tyrosine-protein kinase Tec (Homo sapiens) (UniProt P42680); assay: Inhibition of recombinant human full length His-tagged TEC expressed in baculovirus expression system at 1 uM by TR-FRET assay relative to control
[28] = Cmax in ICR mouse at 5 mg/kg, po administered as single dose by LC-MS/MS analysis; format: ADME, organism-based; parameters: dose 5 mg/kg, route oral; details: in vivo
[29] = AUC (0 to infinity) in ICR mouse at 2 mg/kg, iv administered as single dose by LC-MS/MS analysis; format: ADME, organism-based; parameters: dose 2 mg/kg, time infinity, route intravenous; details: in vivo
[30] = Half life in CD-1 mouse brain at 10 mg/kg, po administered as single dose by LC-MS/MS analysis; format: ADME, organism-based
[31] = Unbound Cmax in CD-1 mouse brain at 10 mg/kg, po administered as single dose by LC-MS/MS analysis; format: ADME, organism-based; details: in vivo

Sequence of Ephrin type-B receptor 2 (Homo sapiens) (P29323 whole entry, the tested form may be a part): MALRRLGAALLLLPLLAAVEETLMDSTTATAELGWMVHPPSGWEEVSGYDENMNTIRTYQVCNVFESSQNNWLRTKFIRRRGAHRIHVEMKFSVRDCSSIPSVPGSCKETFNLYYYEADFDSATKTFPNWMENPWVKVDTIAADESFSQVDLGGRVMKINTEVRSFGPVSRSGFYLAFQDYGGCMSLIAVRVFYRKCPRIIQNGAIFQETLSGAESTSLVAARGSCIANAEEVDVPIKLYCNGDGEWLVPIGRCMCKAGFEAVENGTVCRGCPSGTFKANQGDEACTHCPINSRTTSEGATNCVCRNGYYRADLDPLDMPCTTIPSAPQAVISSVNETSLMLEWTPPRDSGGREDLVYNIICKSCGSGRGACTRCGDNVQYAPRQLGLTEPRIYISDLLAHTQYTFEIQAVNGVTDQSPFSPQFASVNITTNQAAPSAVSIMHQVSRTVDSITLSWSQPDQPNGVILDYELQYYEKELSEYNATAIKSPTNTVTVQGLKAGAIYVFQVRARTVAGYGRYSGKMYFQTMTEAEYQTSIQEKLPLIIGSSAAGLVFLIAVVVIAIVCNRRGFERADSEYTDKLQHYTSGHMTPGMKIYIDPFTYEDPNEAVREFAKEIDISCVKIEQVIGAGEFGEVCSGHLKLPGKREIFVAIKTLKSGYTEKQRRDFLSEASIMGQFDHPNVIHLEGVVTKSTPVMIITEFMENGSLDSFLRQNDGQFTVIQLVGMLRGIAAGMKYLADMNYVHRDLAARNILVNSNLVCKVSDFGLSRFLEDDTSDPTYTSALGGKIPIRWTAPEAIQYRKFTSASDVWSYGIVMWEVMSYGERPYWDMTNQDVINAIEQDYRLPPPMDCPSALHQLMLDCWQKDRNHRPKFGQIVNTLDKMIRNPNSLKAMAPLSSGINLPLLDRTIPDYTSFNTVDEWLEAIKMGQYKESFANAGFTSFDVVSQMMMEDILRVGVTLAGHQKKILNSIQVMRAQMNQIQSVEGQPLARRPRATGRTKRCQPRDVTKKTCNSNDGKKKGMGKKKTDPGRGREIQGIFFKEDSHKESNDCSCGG
Sequence of Tyrosine-protein kinase BTK (Homo sapiens) (Q06187 whole entry, the tested form may be a part): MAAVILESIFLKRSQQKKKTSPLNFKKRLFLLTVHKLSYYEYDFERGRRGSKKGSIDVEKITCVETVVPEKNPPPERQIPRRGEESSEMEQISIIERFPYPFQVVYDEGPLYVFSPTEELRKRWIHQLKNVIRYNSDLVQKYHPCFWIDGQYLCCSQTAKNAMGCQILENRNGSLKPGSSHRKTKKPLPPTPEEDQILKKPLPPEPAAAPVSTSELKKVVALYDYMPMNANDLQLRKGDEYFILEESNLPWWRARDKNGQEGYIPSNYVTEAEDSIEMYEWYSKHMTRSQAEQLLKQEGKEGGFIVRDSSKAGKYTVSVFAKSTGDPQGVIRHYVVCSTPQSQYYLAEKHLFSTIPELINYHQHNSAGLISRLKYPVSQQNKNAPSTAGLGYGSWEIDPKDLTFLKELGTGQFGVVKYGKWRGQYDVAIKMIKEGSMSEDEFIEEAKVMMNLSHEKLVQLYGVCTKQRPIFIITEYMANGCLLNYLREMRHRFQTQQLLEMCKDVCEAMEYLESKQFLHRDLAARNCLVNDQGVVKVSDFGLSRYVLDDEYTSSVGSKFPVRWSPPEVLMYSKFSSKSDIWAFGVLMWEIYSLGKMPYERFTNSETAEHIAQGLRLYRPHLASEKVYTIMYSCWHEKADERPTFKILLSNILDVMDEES
Sequence of Mitogen-activated protein kinase kinase kinase 9 (Homo sapiens) (P80192 whole entry, looked up): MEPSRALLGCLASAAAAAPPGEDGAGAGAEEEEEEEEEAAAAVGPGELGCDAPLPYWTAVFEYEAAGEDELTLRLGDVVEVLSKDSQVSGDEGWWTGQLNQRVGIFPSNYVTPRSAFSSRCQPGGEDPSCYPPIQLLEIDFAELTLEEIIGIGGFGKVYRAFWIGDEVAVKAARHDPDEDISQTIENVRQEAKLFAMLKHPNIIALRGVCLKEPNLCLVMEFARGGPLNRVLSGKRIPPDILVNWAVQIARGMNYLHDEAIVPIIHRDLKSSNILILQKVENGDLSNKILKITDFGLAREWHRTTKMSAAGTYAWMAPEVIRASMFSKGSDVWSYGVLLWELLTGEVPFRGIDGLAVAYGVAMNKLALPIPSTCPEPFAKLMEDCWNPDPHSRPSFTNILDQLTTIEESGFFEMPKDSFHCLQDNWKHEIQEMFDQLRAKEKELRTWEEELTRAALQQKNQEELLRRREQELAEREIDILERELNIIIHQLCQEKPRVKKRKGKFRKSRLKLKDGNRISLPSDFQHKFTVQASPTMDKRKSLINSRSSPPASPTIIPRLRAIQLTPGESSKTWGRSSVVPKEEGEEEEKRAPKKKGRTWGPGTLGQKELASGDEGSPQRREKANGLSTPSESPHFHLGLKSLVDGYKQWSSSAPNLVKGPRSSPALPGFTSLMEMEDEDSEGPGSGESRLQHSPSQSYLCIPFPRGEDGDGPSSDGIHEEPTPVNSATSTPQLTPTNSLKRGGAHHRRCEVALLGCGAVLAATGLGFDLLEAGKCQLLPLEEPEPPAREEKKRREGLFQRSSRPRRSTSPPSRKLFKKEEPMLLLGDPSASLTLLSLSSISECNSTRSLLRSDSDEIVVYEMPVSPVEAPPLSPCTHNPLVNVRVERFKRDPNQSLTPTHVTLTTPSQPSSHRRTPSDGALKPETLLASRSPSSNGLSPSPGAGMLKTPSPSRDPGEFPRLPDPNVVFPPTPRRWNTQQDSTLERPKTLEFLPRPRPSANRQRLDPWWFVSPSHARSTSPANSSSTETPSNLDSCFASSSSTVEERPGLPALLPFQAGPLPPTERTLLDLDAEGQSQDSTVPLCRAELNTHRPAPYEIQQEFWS
Sequence of Mitogen-activated protein kinase kinase kinase 14 (Q99558 whole entry): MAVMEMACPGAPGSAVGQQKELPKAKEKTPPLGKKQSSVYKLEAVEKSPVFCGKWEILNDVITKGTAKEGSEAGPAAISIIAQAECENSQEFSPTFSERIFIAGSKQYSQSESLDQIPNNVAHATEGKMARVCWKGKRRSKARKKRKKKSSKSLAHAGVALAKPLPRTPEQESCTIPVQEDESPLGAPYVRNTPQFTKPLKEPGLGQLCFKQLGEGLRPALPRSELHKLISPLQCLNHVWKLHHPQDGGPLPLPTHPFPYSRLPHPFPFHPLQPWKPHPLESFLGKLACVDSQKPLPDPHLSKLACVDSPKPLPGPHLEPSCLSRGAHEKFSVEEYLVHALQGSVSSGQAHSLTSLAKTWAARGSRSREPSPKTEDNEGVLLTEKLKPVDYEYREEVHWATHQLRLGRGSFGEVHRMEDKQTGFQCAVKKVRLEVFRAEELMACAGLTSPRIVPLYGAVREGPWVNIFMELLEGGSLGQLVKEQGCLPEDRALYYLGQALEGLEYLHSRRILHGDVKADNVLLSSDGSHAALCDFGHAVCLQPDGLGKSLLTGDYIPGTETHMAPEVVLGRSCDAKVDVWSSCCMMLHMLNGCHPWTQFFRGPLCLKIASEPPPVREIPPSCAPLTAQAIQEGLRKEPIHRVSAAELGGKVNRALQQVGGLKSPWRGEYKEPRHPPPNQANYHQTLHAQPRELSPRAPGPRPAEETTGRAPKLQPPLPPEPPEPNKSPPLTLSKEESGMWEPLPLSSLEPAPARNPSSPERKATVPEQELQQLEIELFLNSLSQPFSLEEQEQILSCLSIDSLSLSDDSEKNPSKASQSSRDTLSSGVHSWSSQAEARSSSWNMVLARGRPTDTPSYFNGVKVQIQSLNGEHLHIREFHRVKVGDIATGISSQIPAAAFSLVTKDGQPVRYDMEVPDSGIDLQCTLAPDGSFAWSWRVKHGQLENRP
Sequence of Tyrosine-protein kinase Mer (Homo sapiens) (Q12866 whole entry, the tested form may be a part): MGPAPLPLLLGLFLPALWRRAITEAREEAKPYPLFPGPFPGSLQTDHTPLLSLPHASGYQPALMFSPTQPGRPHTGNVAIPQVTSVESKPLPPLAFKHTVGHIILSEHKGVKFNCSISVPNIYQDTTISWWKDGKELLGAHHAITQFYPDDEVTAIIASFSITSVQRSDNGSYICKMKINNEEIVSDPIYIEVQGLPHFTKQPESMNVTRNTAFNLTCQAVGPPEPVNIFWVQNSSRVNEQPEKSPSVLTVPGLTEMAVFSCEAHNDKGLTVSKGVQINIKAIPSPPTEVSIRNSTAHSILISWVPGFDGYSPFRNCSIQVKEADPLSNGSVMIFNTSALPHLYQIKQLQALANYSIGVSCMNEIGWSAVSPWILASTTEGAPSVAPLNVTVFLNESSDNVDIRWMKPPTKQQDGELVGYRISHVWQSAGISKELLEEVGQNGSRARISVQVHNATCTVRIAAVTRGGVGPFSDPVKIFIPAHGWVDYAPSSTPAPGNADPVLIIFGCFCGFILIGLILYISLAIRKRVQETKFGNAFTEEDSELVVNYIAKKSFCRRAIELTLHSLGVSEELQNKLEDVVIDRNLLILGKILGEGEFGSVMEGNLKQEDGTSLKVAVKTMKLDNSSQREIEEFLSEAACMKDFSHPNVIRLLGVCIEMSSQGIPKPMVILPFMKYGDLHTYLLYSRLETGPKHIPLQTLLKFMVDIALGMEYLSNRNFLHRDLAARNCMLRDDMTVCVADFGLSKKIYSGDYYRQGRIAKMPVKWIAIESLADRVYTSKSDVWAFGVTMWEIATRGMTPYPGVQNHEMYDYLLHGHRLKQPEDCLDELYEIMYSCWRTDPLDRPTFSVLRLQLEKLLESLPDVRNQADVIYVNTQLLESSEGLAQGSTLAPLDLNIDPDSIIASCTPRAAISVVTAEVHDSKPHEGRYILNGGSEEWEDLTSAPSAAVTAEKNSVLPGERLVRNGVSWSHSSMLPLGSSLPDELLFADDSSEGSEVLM

CC1=Nc2c(F)cc(-c3nc(Nc4ccc(C5CCN(C)CC5)cn4)ncc3F)cc2C12CCCC2 [CROZBACICLIB]
IC50 [1]: 3 nM | clearance [2]: 34.9 mL/min/kg | AUC(0-inf) [3]: 959 ng·h/mL | half-life [4]: 8.5 h | IC50 [5]: 154 nM | IC50 [6]: 45 nM | inhibition [7]: 9% | inhibition [8]: -9% | inhibition [9]: -8% | inhibition [10]: 2% | inhibition [11]: 12% | inhibition [12]: -1% | inhibition [13]: 17% | inhibition [14]: 3% | inhibition [15]: -6% | inhibition [16]: 101% | inhibition [17]: 87% | inhibition [18]: 31% | inhibition [19]: 3% | inhibition [20]: 1% | inhibition [21]: -1% | inhibition [22]: 59% | inhibition [23]: 12% | inhibition [24]: 20% | inhibition [25]: 10% | inhibition [26]: 87% | inhibition [27]: 2% | Cmax [28]: 134 ng/mL | AUC(0-inf) [29]: 1330 ng·h/mL | half-life [30]: 6.38 h | fCmax [31]: 1.03 ng/g
